Source: patent US10227346B2, “Methyl- and trifluoromethyl-substituted pyrrolopyridine modulators of RORC2 and methods of use therof” (Pfizer Inc., priority 2014, dated 2019)

Tested on: IL-17 production from human Th17 cells;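 note: purified human CD4+ T cells activated with anti-CD3 plus anti-CD28 and a Th17-inducing cytokine cocktail, with compound at serial concentrations versus no compound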
Assay: IL-17 production from human Th17 cells;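 note: purified human CD4+ T cells activated with anti-CD3 plus anti-CD28 and a Th17-inducing cytokine cocktail, with compound at serial concentrations versus no compound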
Assay type: cell-based
Conditions: IL-17A in supernatant by ELISA after 6 days, human CD4+ T cells under Th17 differentiation

Cc1c(NC(=O)c2cc(O)cc(C#N)c2)cnc2c1c(C1CCN(C(=O)[C@H](C)C(C)(C)C)CC1)cn2C [Example 56, (R)-3-cyano-N-(1,4-dimethyl-3-(1-(2,3,3-trimethylbutanoyl)piperidin-4-yl)-1H-pyrrolo[2,3-b]pyridin-5-yl)-5-hydroxybenzamide] and C[C@@H](C(=O)N1CCC(c2cn(C)c3ncc(NC(=O)c4cc(O)cc(C#N)c4)c(C(F)(F)F)c23)CC1)C(C)(C)C [Example 54, (R)-3-cyano-5-hydroxy-N-(1-methyl-4-(trifluoromethyl)-3-(1-(2,3,3-trimethylbutanoyl)piperidin-4-yl)-1H-pyrrolo [2,3-b]pyridin-5-yl)benzamide] are within 1.5-fold of each other in IC50: 4.9 nM for the first, 5 nM for the second.

Compared with COc1ccc(C(=O)Nc2cnc3c(c(C4[C@@H]5CC[C@H]4CN(C(=O)C4CCCC4)C5)cn3C)c2C)cc1C#N (stereo partly drawn) [Example 99, 3-cyano-N-(3-((1R,5S,8r)-3-(cyclopentanecarbonyl)-3-azabicyclo[3.2.1]octan-8-yl)-1,4-dimethyl-1H-pyrrolo[2,3-b]pyridin-5-yl)-4-methoxybenzamide], Cn1cc(C2[C@@H]3CC[C@H]2CN(C(=O)C2CCCC2)C3)c2c(C(F)(F)F)c(NC(=O)c3cccc(C#N)c3)cnc21 (stereo partly drawn) [Example 79, 3-cyano-N-{3-((1R,5S,8r)-3-(cyclopentanecarbonyl)-3-azabicyclo[3.2.1]octan-8-yl]-1-methyl-4-(trifluoromethyl)-1H-pyrrolo[2,3-b]pyridin-5-yl}benzamide] is 3.6-fold lower in IC50: 14.7 nM for the first, 4.1 nM for the second.

Cn1cc([C@@H]2CCN(C(=O)C3CCCC3)C(C)(C)C2)c2c(C(F)(F)F)c(NC(=O)c3cccc(C#N)c3)cnc21 [Example 65, (R)-3-cyano-N-(3-(1-(cyclopentanecarbonyl)-2,2-dimethylpiperidin-4-yl)-1-methyl-4-(trifluoromethyl)-1H-pyrrolo[2,3-b]pyridin-5-yl)benzamide] and Cn1cc(C2CCN(C(=O)[C@@H]3CCCS3)CC2)c2c(C(F)(F)F)c(NC(=O)c3cccc(C#N)c3)cnc21 (single isomer, unassigned) [Example 29] are within 1.5-fold of each other in IC50: 10.7 nM for the first, 8.5 nM for the second.

CC(C)C(=O)N1CCC(c2cn(C)c3ncc(NC(=O)c4cccc(C#N)c4)c(C(F)(F)F)c23)CC1 [Example 5, 3-cyano-N-(3-(1-isobutyrylpiperidin-4-yl)-1-methyl-4-(trifluoromethyl)-1H-pyrrolo[2,3-b]pyridin-5-yl)benzamide] and CC(C(=O)N1CCC(c2cn(C)c3ncc(NC(=O)c4cccc(C#N)c4)c(C(F)(F)F)c23)CC1)C1CC1 (racemic) [Example 25, Rac-3-cyano-N-(3-(1-(2-cyclopropylpropanoyl)piperidin-4-yl)-1-methyl-4-(trifluoromethyl)-1H-pyrrolo[2,3-b]pyridin-5-yl)benzamide] are within 1.5-fold of each other in IC50: 9.5 nM for the first, 14.1 nM for the second.

Compared with Cc1c(NC(=O)c2cccc(C#N)c2)cnc2c1c(C1CCN(C(=O)[C@@H]3CCC[C@@H]3C(C)C)CC1)cn2C (single isomer, unassigned) [Example 48], Cc1c(NC(=O)c2cccc(C#N)c2)cnc2c1c(C1CCN(C(=O)[C@H](C)C3CCCC3)CC1)cn2C [Example 51, (R)-3-cyano-N-(3-(1-(2-cyclopentylpropanoyl)piperidin-4-yl)-1,4-dimethyl-1H-pyrrolo[2,3-b]pyridin-5-yl)benzamide] is 2.1-fold lower in IC50: 13.4 nM for the first, 6.4 nM for the second. The second is the more potent here.

Compared with Cc1c(NC(=O)c2cccc(C#N)c2)cnc2c1c(C1CCN(C(=O)CC(C)C)CC1)cn2C [Example 109, 3-cyano-N-(1,4-dimethyl-3-(1-(3-methylbutanoyl)piperidin-4-yl)-1H-pyrrolo[2,3-b]pyridin-5-yl)benzamide], Cc1c(NC(=O)c2cccc(C#N)c2)cnc2c1c(C1CCN(C(=O)[C@H](C)C(C)C)CC1)cn2C [Example 37, (R)-3-cyano-N-(3-(1-(2,3-dimethylbutanoyl)piperidin-4-yl)-1,4-dimethyl-1H-pyrrolo[2,3-b]pyridin-5-yl)benzamide] is 3.5-fold lower in IC50: 32.1 nM for the first, 9.2 nM for the second. The second is the more potent here.

Cc1cccc(F)c1C(=O)N1CCC(c2cn(C)c3ncc(NC(=O)c4cccc(C#N)c4)c(C)c23)CC1 [Example 33, 3-cyano-N-(3-(1-(2-fluoro-6-methylbenzoyl)piperidin-4-yl)-1,4-dimethyl-1H-pyrrolo[2,3-b]pyridin-5-yl)benzamide] and Cc1c(NC(=O)c2cccc(C#N)c2)cnc2c1c(C1CCN(C(=O)c3cccc4c3CCC4)CC1)cn2C [Example 34, 3-cyano-N-(3-(1-(2,3-dihydro-1H-indene-4-carbonyl)piperidin-4-yl)-1,4-dimethyl-1H-pyrrolo[2,3-b]pyridin-5-yl)benzamide] are within 1.5-fold of each other in IC50: 13.7 nM for the first, 9.5 nM for the second.

Compared with Cc1c(NC(=O)c2cccc(C#N)c2)cnc2c1c([C@@H]1CCN(C(=O)CC3CCCCC3)C(C)(C)C1)cn2C [Example 75, (R)-3-cyano-N-(3-(1-(2-cyclohexylacetyl)-2,2-dimethylpiperidin-4-yl)-1,4-dimethyl-1H-pyrrolo[2,3-b]pyridin-5-yl)benzamide], Cc1c(NC(=O)c2cccc(C#N)c2)cnc2c1c([C@@H]1CCN(C(=O)C[C@@H](O)C(F)(F)F)C(C)(C)C1)cn2C [Example 73, 3-cyano-N-(3-((R)-2,2-dimethyl-1-((R)-4,4,4-trifluoro-3-hydroxybutanoyl)piperidin-4-yl)-1,4-dimethyl-1H-pyrrolo[2,3-b]pyridin-5-yl)benzamide] is 3.7-fold higher in IC50: 6.8 nM for the first, 25.3 nM for the second.

COc1cc(Cl)cc(C(=O)Nc2cnc3c(c(C4CCN(C(=O)C(C)C)CC4)cn3C)c2C(F)(F)F)c1 [Example 13, 3-chloro-N-(3-(1-isobutyrylpiperidin-4-yl)-1-methyl-4-(trifluoromethyl)-1H-pyrrolo[2,3-b]pyridin-5-yl)-5-methoxybenzamide] and COc1ccc(C(=O)Nc2cnc3c(c(C4CCN(C(=O)C(C)C)CC4)cn3C)c2C(F)(F)F)cc1Cl [Example 10, 3-chloro-N-(3-(1-isobutyrylpiperidin-4-yl)-1-methyl-4-(trifluoromethyl)-1H-pyrrolo[2,3-b]pyridin-5-yl)-4-methoxybenzamide] are within 1.5-fold of each other in IC50: 48.7 nM for the first, 51.3 nM for the second.

Compared with Cn1cc(C2CCN(C(=O)CC3CC3)CC2)c2c(C(F)(F)F)c(NC(=O)c3cccc(C#N)c3)cnc21 [Example 24, 3-cyano-N-(3-(1-(2-cyclopropylacetyl)piperidin-4-yl)-1-methyl-4-(trifluoromethyl)-1H-pyrrolo[2,3-b]pyridin-5-yl)benzamide], Cc1c(NC(=O)c2cccc(C#N)c2)cnc2c1c([C@@H]1CCN(C(=O)C(C)C3CC3)C[C@@H]1C)cn2C (stereo partly drawn) [Example 86, 3-cyano-N-(3-((3R,4R)-1-(2-cyclopropylpropanoyl)-3-methylpiperidin-4-yl)-1,4-dimethyl-1H-pyrrolo[2,3-b]pyridin-5-yl)benzamide] is 2-fold higher in IC50: 17.4 nM for the first, 34.9 nM for the second. The first is the more potent here.

Going from COc1cc(Cl)cc(C(=O)Nc2cnc3c(c([C@@H]4CCN(C(=O)C(C)C)C(C)(C)C4)cn3C)c2C)c1 [Example 62, (R)-3-chloro-N-(3-(1-isobutyryl-2,2-dimethylpiperidin-4-yl)-1,4-dimethyl-1H-pyrrolo[2,3-b]pyridin-5-yl)-5-methoxybenzamide] to CC(C)C(=O)N1CC[C@@H](c2cn(C)c3ncc(NC(=O)c4cccc(C#N)c4F)c(C(F)(F)F)c23)[C@@H](C)C1 [Example 82, 3-cyano-2-fluoro-N-(3-((3R,4R)-1-isobutyryl-3-methylpiperidin-4-yl)-1-methyl-4-(trifluoromethyl)-1H-pyrrolo[2,3-b]pyridin-5-yl)benzamide], the IC50 falls from 15.8 nM to 5.7 nM (2.8-fold). The second is the more potent here.
